Source: patent EP1509285B1, “SYNERGISTIC COMPOSITION OF TRANS-TETRACOS-15-ENOIC ACID AND APOCYNIN AND USE THEREOF” (COUNCIL OF SCIENTIFIC AND INDUSTRIAL RESEARCH, priority 2002, dated 2003)

Test system: bile flow and bile solids
Assay: Choleretic activity: bile flow and bile solids after bile duct cannulation in normal anaesthetised rats
Type: in vivo
Conditions: 50 mg kg-1 i.d., bile collected 0-5 hours, mean ±SE
Source text: The liver, by producing bile, plays an important role in digestion. The presence of bile in the intestine is necessary to accomplish the digestion and absorption of fats as well as absorption of the fat-soluble vitamins- A, D, E & K. Bile is also an important vehicle of excretion. It removes many drugs, toxins, bile pigments and various inorganic substances either derived from the diet or synthesized by the body as cholesterol or as cholic acid.
Effect on the liver bile flow of test drug and that of vehicle is carried out after cannulating the bile duct in normal anaesthesied rats. Bile collected is from each animal from 0-5 hours (Klaassen, 1969, Donal et al.1953). (Table 5)

C[C@H](CCC(=O)O)[C@H]1CC[C@H]2[C@@H]3C(=O)C[C@@H]4CC(=O)CC[C@]4(C)[C@H]3CC(=O)[C@]12C [DHC, Dehydrocholic acid, reference compound]
Bile parameters % Increase (as compared to normal) Bile flow: 38.40±2.76 ml% | Bile parameters % Increase (as compared to normal) Bile solids: 28.13±3.89 mg%
